Assay results from patent publication US20230241071A1, “COMBINATION TREATMENT OF LIVER DISORDERS” (Terns Pharmaceuticals, Inc., priority 2021, published 2023).
“Also recorded” adds a separate entry of the source. Where two headings read alike, the source gives them in different places.

Tests used:
SSAO = target: T1, SSAO (Homo sapiens, UniProt Q16853); assay: Plasma SSAO/amine oxidase activity and methylamine after a single dose of Compound 1; assay type: in vivo
T1 construct: from tissue; host or cells: human plasma from dosed participants
T1 sequence (Q16853 29-763 limits assumed): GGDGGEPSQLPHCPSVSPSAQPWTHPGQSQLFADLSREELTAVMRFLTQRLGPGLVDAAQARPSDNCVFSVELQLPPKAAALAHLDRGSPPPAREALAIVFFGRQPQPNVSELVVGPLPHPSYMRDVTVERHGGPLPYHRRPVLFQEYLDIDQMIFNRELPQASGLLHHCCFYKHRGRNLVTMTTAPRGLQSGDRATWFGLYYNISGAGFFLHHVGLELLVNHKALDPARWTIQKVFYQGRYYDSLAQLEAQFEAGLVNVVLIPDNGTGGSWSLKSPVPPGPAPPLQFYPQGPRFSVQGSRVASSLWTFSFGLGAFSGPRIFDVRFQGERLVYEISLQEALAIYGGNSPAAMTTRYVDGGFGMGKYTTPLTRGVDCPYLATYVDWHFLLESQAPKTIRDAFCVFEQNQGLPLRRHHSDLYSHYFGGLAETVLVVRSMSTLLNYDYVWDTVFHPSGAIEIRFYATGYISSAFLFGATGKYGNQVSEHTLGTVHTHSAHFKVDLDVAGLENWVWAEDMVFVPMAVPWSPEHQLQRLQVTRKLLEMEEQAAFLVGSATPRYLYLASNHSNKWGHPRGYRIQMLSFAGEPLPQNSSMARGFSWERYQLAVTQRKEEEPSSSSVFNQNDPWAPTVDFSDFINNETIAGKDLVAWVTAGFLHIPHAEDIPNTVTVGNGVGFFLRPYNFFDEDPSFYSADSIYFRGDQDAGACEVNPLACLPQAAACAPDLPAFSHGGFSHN
Procedure: Safety was assessed for 7 (±3) days after dosing.
Plasma PK parameters were determined by non-compartmental analysis.
SSAO-specific amine oxidase levels in plasma were determined using a kinetic-based assay essentially as described previously (Schilter et al). Endogenous monoamine oxidases A and B were inhibited by adding pargyline to plasma samples prior to measuring H2O2 generation levels in placebo and active recipients.

[1] = Multiple-ascending dose trial of Compound 2 in healthy participants; assay type: in vivo, human; conditions: for Cmax / AUC / half-life: human, plasma, oral; for AUC: read-out: AUCtau (mean); for half-life: read-out: t1/2 (median) (converted)
Procedure: A multiple-ascending dose clinical trial of Compound 2 was performed.
Compound 2 plasma and urine concentrations were determined using validated liquid chromatography-tandem mass spectrometry assay.
Plasma samples for Compound 2 concentration and PK sampling were collected pre-dose and at 0.5, 1, 2, 3, 4, 6, 8, 12, and 24 hours after the first dose, at pre-dose on Days 3, 4, 5, 8, 11, and 13 of dosing, and at pre-dose and at 0.5, 1, 2, 3, 4, 6, 8, 12, 24, 48, and 72 hours after 14 days of administration of study medication (placebo or compound). (See Table 16, FIG. 17) PK parameters were estimated via noncompartmental methods using Phoenix® WinNonlin® (Certara, LP, Princeton, N.J.). Concentrations of serum pharmacodynamic (PD) biomarkers apolipoprotein B (Apo B) and sex hormone binding globulin (SHBG) were measured using an immunoassay and serum lipids were determined using spectrophotometry.
PD sampling was also performed. Percent change from baseline for PD markers were calculated using an ANCOVA model with percent change from baseline as dependent variable, treatment group as fixed effect, and baseline as covariate. Analyses used observed data only without imputation for missing data.

Approximate pKa = assay type: physicochemical
P-glycoprotein (P-gp) = P-glycoprotein (P-gp) (Homo sapiens, UniProt P08183); assay type: in vitro ADME
Sequence of P-glycoprotein (P-gp) (P08183 whole entry): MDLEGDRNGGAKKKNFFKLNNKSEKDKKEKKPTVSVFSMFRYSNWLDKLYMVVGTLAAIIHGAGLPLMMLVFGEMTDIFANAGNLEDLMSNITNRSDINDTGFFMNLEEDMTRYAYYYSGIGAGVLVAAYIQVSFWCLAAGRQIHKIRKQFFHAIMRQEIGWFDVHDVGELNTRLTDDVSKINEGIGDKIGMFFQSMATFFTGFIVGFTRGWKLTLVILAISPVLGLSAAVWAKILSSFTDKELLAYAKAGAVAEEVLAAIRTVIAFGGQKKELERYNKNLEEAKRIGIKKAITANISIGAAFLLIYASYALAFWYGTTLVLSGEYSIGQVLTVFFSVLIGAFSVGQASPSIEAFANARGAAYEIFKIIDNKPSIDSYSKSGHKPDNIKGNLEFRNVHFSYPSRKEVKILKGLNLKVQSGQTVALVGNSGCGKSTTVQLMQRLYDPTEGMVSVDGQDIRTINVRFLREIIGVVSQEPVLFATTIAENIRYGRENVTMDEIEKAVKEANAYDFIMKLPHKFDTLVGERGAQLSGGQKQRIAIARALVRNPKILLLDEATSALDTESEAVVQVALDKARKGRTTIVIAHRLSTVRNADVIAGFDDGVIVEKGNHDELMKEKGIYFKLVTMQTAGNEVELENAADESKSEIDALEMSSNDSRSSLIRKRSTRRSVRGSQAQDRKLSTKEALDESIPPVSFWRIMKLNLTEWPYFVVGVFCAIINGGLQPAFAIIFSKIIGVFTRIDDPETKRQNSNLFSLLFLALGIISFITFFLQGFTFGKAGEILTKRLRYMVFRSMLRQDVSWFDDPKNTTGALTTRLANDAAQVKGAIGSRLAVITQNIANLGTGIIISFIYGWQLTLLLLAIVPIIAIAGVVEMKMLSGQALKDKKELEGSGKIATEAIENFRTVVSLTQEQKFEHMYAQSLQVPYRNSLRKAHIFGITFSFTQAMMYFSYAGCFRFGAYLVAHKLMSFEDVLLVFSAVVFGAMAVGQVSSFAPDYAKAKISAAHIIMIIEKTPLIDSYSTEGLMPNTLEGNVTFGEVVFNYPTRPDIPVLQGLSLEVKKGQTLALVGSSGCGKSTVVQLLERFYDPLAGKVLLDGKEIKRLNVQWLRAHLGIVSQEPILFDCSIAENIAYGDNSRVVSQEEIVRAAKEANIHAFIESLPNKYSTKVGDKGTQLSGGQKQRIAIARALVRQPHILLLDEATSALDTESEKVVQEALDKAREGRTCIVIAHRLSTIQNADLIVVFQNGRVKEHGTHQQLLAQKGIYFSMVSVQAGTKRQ

COC1CCN(c2ncc(OC/C(=C/F)CN)cn2)CC1 [Compound 1, (E)-3-fluoro-2-(((2-(4-methoxypiperidin-1-yl)pyrimidin-5-yl)oxy)methyl)prop-2-en-1-amine]
inhibition of plasma SSAO activity (SSAO; 4 hours post-dose, all dose cohorts (1-10 mg)): Near complete inhibition
duration of suppression of plasma SSAO activity after a single dose (SSAO; single dose 1-10 mg): up to 1 week
plasma methylamine (MMA) (SSAO; single dose 1-10 mg): Maximum plasma MMA levels increased; also recorded: Dose-dependent increases

N#Cc1nn(-c2cc(Cl)c(Oc3n[nH]c(=O)c4ccccc34)c(Cl)c2)c(=O)[nH]c1=O [Compound 2, 2-(3,5-dichloro-4-((4-oxo-3,4-dihydrophthalazin-1-yl)oxy)phenyl)-3,5-dioxo-2,3,4,5-tetrahydro-1,2,4-triazine-6-carbonitrile]
AEs by relationship to drug: Not related ([1]; 3 mg QD 14 days (N = 6)): 1 (16.7%) n (%)
AEs by relationship to drug: Possibly related ([1]; 3 mg QD 14 days (N = 6)): 0 n (%)
AEs by relationship to drug: Related ([1]; 3 mg QD 14 days (N = 6)): 0 n (%)
AEs by relationship to drug: Unlikely related ([1]; 3 mg QD 14 days (N = 6)): 0 n (%)
Subject incidence: Any AE, all CTCAE grades ([1]; 3 mg QD 14 days (N = 6)): 1 (16.7%) n (%)
Subject incidence: Grade 1 AEs ([1]; 3 mg QD 14 days (N = 6)): 1 (16.7%) n (%)
Subject incidence: Grade 2 or higher AEs ([1]; 3 mg QD 14 days (N = 6)): 0 n (%)
Subject incidence: Serious AEs ([1]; 3 mg QD 14 days (N = 6)): 0 n (%)
AEs by relationship to drug: Not related ([1]; 6 mg QD 14 days (N = 6)): 0 n (%)
AEs by relationship to drug: Possibly related ([1]; 6 mg QD 14 days (N = 6)): 1 (16.7%) n (%)
AEs by relationship to drug: Related ([1]; 6 mg QD 14 days (N = 6)): 0 n (%)
AEs by relationship to drug: Unlikely related ([1]; 6 mg QD 14 days (N = 6)): 0 n (%)
Subject incidence: Any AE, all CTCAE grades ([1]; 6 mg QD 14 days (N = 6)): 1 (16.7%) n (%)
Subject incidence: Grade 1 AEs ([1]; 6 mg QD 14 days (N = 6)): 1 (16.7%) n (%)
Subject incidence: Grade 2 or higher AEs ([1]; 6 mg QD 14 days (N = 6)): 0 n (%)
Subject incidence: Serious AEs ([1]; 6 mg QD 14 days (N = 6)): 0 n (%)
AEs by relationship to drug: Not related ([1]; 10 mg QD 14 days (N = 6)): 2 (33.3%) n (%)
AEs by relationship to drug: Possibly related ([1]; 10 mg QD 14 days (N = 6)): 0 n (%)
AEs by relationship to drug: Related ([1]; 10 mg QD 14 days (N = 6)): 0 n (%)
AEs by relationship to drug: Unlikely related ([1]; 10 mg QD 14 days (N = 6)): 0 n (%)
Subject incidence: Any AE, all CTCAE grades ([1]; 10 mg QD 14 days (N = 6)): 2 (33.3%) n (%)
Subject incidence: Grade 1 AEs ([1]; 10 mg QD 14 days (N = 6)): 2 (33.3%) n (%)
Subject incidence: Grade 2 or higher AEs ([1]; 10 mg QD 14 days (N = 6)): 0 n (%)
Subject incidence: Serious AEs ([1]; 10 mg QD 14 days (N = 6)): 0 n (%)
Ctau (mean) ([1]; Day 14, 1 mg QD): 25.7 ng/mL
Ctau (mean) ([1]; Day 14, 3 mg QD): 77.9 ng/mL
Ctau (mean) ([1]; Day 14, 6 mg QD): 175 ng/mL
Ctau (mean) ([1]; Day 14, 10 mg QD): 196 ng/mL
GGT ([1]; QD 14 days): Dose-dependent GGT increases
TSH or free T3 ([1]; QD 14 days): without clear change
free T4 ([1]; QD 14 days): declined in dose-dependent fashion
free testosterone levels ([1]; QD 14 days): no significant change
heart rate and blood pressure ([1]; QD 14 days): remained stable
mean ALT values ([1]; QD 14 days): not significantly different from placebo
oral bioavailability and PK variability ([1]; QD 14 days): good oral bioavailability with low PK variability
total testosterone ([1]; QD 14 days): Dose-dependent total testosterone increases
safety and tolerability ([1]; QD 14 days, up to 10 mg): well-tolerated
HDL-c ([1]; day 15): did not significantly change
total cholesterol, LDL-c, Apo B, and triglycerides ([1]; day 15, 10 mg dose cohort): significant reductions
Cmax ([1]; Day 14, 1 mg QD): 80.3 ng/mL
AUC ([1]; Day 14, 1 mg QD): 1090 ng·h/mL
half-life ([1]; Day 14, 1 mg QD): 19.5 h
Cmax ([1]; Day 14, 3 mg QD): 291 ng/mL
AUC ([1]; Day 14, 3 mg QD): 3600 ng·h/mL
half-life ([1]; Day 14, 3 mg QD): 16 h
Cmax ([1]; Day 14, 6 mg QD): 699 ng/mL
AUC ([1]; Day 14, 6 mg QD): 8310 ng·h/mL
half-life ([1]; Day 14, 6 mg QD): 15.8 h
Cmax ([1]; Day 14, 10 mg QD): 996 ng/mL
AUC ([1]; Day 14, 10 mg QD): 10600 ng·h/mL
half-life ([1]; Day 14, 10 mg QD): 15.4 h
SHBG ([1]; multiple doses, even at 3 mg QD): significant and dose-dependent increases
pKa (Approximate pKa): ~4.12

Cn1cc(C(=O)O)c2ccc(N3CCC(OCc4c(-c5c(Cl)cccc5Cl)noc4C4CC4)CC3)cc21 [Compound 3]
IC50 (P-glycoprotein (P-gp)): 3.92 µM
